Laboratory results: patent publication US10202361B2, “Pyridazinones as herbicides” (E I DU PONT DE NEMOURS AND COMPANY, priority 2014, dated 2019)
Where two headings read alike, the source gives them in different places.

Columns and labels:
Assay type in all cases: in vivo
[1] = tested on: chickweed (common chickweed, Stellaria media); test: Test C postemergence greenhouse herbicide test
From the text: At the same time, plants selected from these crop and weed species and also barley (winter barley, Hordeum vulgare), canarygrass (Phalaris minor), windgrass (Apera spica-venti), deadnettle (henbit deadnettle, Lamium amplexicaule), and chickweed (common chickweed, Stellaria media) were planted in pots containing Redi-Earth® planting medium (Scotts Company, 14111 Scottslawn Road, Marysville, Ohio 43041) comprising spaghnum peat moss, vermiculite, wetting agent and starter nutrients and treated with postemergence applications of test chemicals formulated in the same manner. Plants ranged in height from 2 to 18 cm (1- to 4-leaf stage) for postemergence treatments. Treated plants and controls were maintained in a greenhouse for 13 to 15 d, after which time all species were compared to controls and visually evaluated. Plant response ratings, summarized in Table C, are based on a scale of 0 to 100 where 0 is no effect and 100 is complete control. A dash (-) response means no test result.

[2] = tested on: galium (catchweed bedstraw, Galium aparine); test: Test C pre-/postemergence greenhouse herbicide test; conditions: Galium, read-out: Plant response rating; for pest or weed control at 31 g/ha: 31 g ai/ha; for pest or weed control at 62 g/ha: 62 g ai/ha; for pest or weed control at 125 g/ha: 125 g ai/ha; for pest or weed control at 250 g/ha: 250 g ai/ha
In short: (§1)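 Seeds in loam–sand blend sprayed preemergence, and 1- to 4-leaf plants (2–18 cm) sprayed postemergence, with compounds in non-phytotoxic solvent plus surfactant. Visual rating versus controls after 13–15 d in greenhouse, 0 (no effect) to 100 (complete control).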

[3] = tested on: lambsquarters (Chenopodium album); test: as above
In short: as §1

[4] = tested on: oilseed rape (Brassica napus); test: as above; conditions: Oilseed Rape
In short: as §1

[5] = tested on: ragweed (common ragweed, Ambrosia elatior); test: as above; conditions: Ambrosia artemisiifolia, Ragweed, read-out: Plant response rating; for pest or weed control at 31 g/ha: 31 g ai/ha; for pest or weed control at 62 g/ha: 62 g ai/ha; for pest or weed control at 125 g/ha: 125 g ai/ha; for pest or weed control at 250 g/ha: 250 g ai/ha
In short: as §1

[6] = tested on: corn (Zea mays); test: as above; conditions: Zea mays, Corn, read-out: Plant response rating; for plant injury at 31 g/ha: 31 g ai/ha; for plant injury at 62 g/ha: 62 g ai/ha; for plant injury at 125 g/ha: 125 g ai/ha; for plant injury at 250 g/ha: 250 g ai/ha
In short: as §1

[7] = tested on: johnsongrass (Sorghum halepense); test: as above; conditions: Sorghum halepense, Johnsongrass, read-out: Plant response rating; for pest or weed control at 31 g/ha: 31 g ai/ha; for pest or weed control at 62 g/ha: 62 g ai/ha; for pest or weed control at 125 g/ha: 125 g ai/ha; for pest or weed control at 250 g/ha: 250 g ai/ha
In short: as §1

[8] = tested on: oat, wild (wild oat, Avena fatua); test: as above; conditions: Postemergence
In short: as §1

[9] = tested on: nutsedge, yellow (yellow nutsedge, Cyperus esculentus); test: as above; conditions: Cyperus, Nutsedge, Yellow, read-out: Plant response rating; for pest or weed control at 31 g/ha: 31 g ai/ha; for pest or weed control at 62 g/ha: 62 g ai/ha; for pest or weed control at 125 g/ha: 125 g ai/ha; for pest or weed control at 250 g/ha: 250 g ai/ha
In short: as §1

[10] = tested on: kochia (Kochia scoparia); test: as above; conditions: Postemergence
In short: as §1

[11] = tested on: crabgrass, Large (large crabgrass, Digitaria sanguinalis); test: as above; conditions: Digitaria sanguinalis, Crabgrass, Large, read-out: Plant response rating; for pest or weed control at 31 g/ha: 31 g ai/ha; for pest or weed control at 62 g/ha: 62 g ai/ha; for pest or weed control at 125 g/ha: 125 g ai/ha; for pest or weed control at 250 g/ha: 250 g ai/ha
In short: as §1

[12] = tested on: ryegrass, Italian (Italian ryegrass, Lolium multiflorum); test: as above; conditions: Lolium multiflorum, Ryegrass, Italian, read-out: Plant response rating; for pest or weed control at 31 g/ha: 31 g ai/ha; for pest or weed control at 62 g/ha: 62 g ai/ha; for pest or weed control at 125 g/ha: 125 g ai/ha; for pest or weed control at 250 g/ha: 250 g ai/ha
In short: as §1

[13] = tested on: pigweed (Amaranthus retroflexus); test: as above; conditions: Amaranthus retroflexus, Pigweed, read-out: Plant response rating; for pest or weed control at 31 g/ha: 31 g ai/ha; for pest or weed control at 62 g/ha: 62 g ai/ha; for pest or weed control at 125 g/ha: 125 g ai/ha; for pest or weed control at 250 g/ha: 250 g ai/ha
In short: as §1

SMILES: Cc1cc(=O)n(-c2ccc(F)cc2)nc1Cc1ccnc(C(F)(F)F)c1 [Compound 1, 2-(4-fluorophenyl)-5-methyl-6-[[2-(trifluoromethyl)-4-pyridinyl]methyl]-3(2H)-pyridazinone]
- Plant response rating ([1]; 31 g ai/ha): 40
- Plant response rating ([1]; 62 g ai/ha): 45
- Plant response rating ([1]; 125 g ai/ha): 60
- Plant response rating ([1]; 250 g ai/ha): 90
- pest or weed control at 31 g/ha ([2]; post-emergence, Postemergence): 40%
- pest or weed control at 62 g/ha ([2]; post-emergence, Postemergence): 65%
- pest or weed control at 125 g/ha ([2]; post-emergence, Postemergence): 70%
- pest or weed control at 250 g/ha ([2]; post-emergence, Postemergence): 70%
- pest or weed control at 31 g/ha ([2]; pre-emergence, Preemergence): 95%
- pest or weed control at 62 g/ha ([2]; pre-emergence, Preemergence): 100%
- pest or weed control at 125 g/ha ([2]; pre-emergence, Preemergence): 100%
- pest or weed control at 250 g/ha ([2]; pre-emergence, Preemergence): 100%
- Plant response rating ([3]; Postemergence, 31 g ai/ha): 60
- Plant response rating ([3]; Postemergence, 125 g ai/ha): 65
- Plant response rating ([3]; Postemergence, 250 g ai/ha): 75
- Plant response rating ([3]; Preemergence, 31 g ai/ha): 100
- Plant response rating ([3]; Preemergence, 62 g ai/ha): 100
- Plant response rating ([3]; Preemergence, 125 g ai/ha): 100
- Plant response rating ([3]; Preemergence, 250 g ai/ha): 100
- Plant response rating ([4]; Postemergence, 31 g ai/ha): 5
- Plant response rating ([4]; Postemergence, 62 g ai/ha): 5
- Plant response rating ([4]; Postemergence, 125 g ai/ha): 10
- Plant response rating ([4]; Postemergence, 250 g ai/ha): 30
- Plant response rating ([4]; Preemergence, 31 g ai/ha): 30
- Plant response rating ([4]; Preemergence, 62 g ai/ha): 80
- Plant response rating ([4]; Preemergence, 125 g ai/ha): 100
- Plant response rating ([4]; Preemergence, 250 g ai/ha): 100
- pest or weed control at 31 g/ha ([5]; post-emergence, Postemergence): 30%
- pest or weed control at 62 g/ha ([5]; post-emergence, Postemergence): 50%
- pest or weed control at 125 g/ha ([5]; post-emergence, Postemergence): 50%
- pest or weed control at 250 g/ha ([5]; post-emergence, Postemergence): 60%
- pest or weed control at 31 g/ha ([5]; pre-emergence, Preemergence): 25%
- pest or weed control at 62 g/ha ([5]; pre-emergence, Preemergence): 35%
- pest or weed control at 125 g/ha ([5]; pre-emergence, Preemergence): 70%
- pest or weed control at 250 g/ha ([5]; pre-emergence, Preemergence): 100%
- plant injury at 31 g/ha ([6]; post-emergence, Postemergence): 5%
- plant injury at 62 g/ha ([6]; post-emergence, Postemergence): 5%
- plant injury at 125 g/ha ([6]; post-emergence, Postemergence): 5%
- plant injury at 250 g/ha ([6]; post-emergence, Postemergence): 10%
- plant injury at 31 g/ha ([6]; pre-emergence, Preemergence): 15%
- plant injury at 62 g/ha ([6]; pre-emergence, Preemergence): 50%
- plant injury at 125 g/ha ([6]; pre-emergence, Preemergence): 90%
- plant injury at 250 g/ha ([6]; pre-emergence, Preemergence): 95%
- pest or weed control at 31 g/ha ([7]; post-emergence, Postemergence): 5%
- pest or weed control at 62 g/ha ([7]; post-emergence, Postemergence): 5%
- pest or weed control at 125 g/ha ([7]; post-emergence, Postemergence): 5%
- pest or weed control at 250 g/ha ([7]; post-emergence, Postemergence): 5%
- pest or weed control at 31 g/ha ([7]; pre-emergence, Preemergence): 35%
- pest or weed control at 62 g/ha ([7]; pre-emergence, Preemergence): 60%
- pest or weed control at 125 g/ha ([7]; pre-emergence, Preemergence): 85%
- pest or weed control at 250 g/ha ([7]; pre-emergence, Preemergence): 100%
- Plant response rating ([8]; 31 g ai/ha): 5
- Plant response rating ([8]; 62 g ai/ha): 5
- Plant response rating ([8]; 125 g ai/ha): 5
- Plant response rating ([8]; 250 g ai/ha): 5
- pest or weed control at 31 g/ha ([9]; post-emergence, Postemergence): 0%
- pest or weed control at 62 g/ha ([9]; post-emergence, Postemergence): 5%
- pest or weed control at 125 g/ha ([9]; post-emergence, Postemergence): 5%
- pest or weed control at 250 g/ha ([9]; post-emergence, Postemergence): 5%
- pest or weed control at 31 g/ha ([9]; pre-emergence, Preemergence): 10%
- pest or weed control at 62 g/ha ([9]; pre-emergence, Preemergence): 30%
- pest or weed control at 125 g/ha ([9]; pre-emergence, Preemergence): 50%
- pest or weed control at 250 g/ha ([9]; pre-emergence, Preemergence): 55%
- Plant response rating ([10]; 31 g ai/ha): 80
- Plant response rating ([10]; 62 g ai/ha): 80
- Plant response rating ([10]; 125 g ai/ha): 85
- Plant response rating ([10]; 250 g ai/ha): 85
- pest or weed control at 31 g/ha ([11]; post-emergence, Postemergence): 5%
- pest or weed control at 62 g/ha ([11]; post-emergence, Postemergence): 5%
- pest or weed control at 125 g/ha ([11]; post-emergence, Postemergence): 10%
- pest or weed control at 250 g/ha ([11]; post-emergence, Postemergence): 20%
- pest or weed control at 31 g/ha ([11]; pre-emergence, Preemergence): 100%
- pest or weed control at 62 g/ha ([11]; pre-emergence, Preemergence): 100%
- pest or weed control at 125 g/ha ([11]; pre-emergence, Preemergence): 100%
- pest or weed control at 250 g/ha ([11]; pre-emergence, Preemergence): 100%
- pest or weed control at 31 g/ha ([12]; post-emergence, Postemergence): 5%
- pest or weed control at 62 g/ha ([12]; post-emergence, Postemergence): 5%
- pest or weed control at 125 g/ha ([12]; post-emergence, Postemergence): 5%
- pest or weed control at 250 g/ha ([12]; post-emergence, Postemergence): 5%
- pest or weed control at 31 g/ha ([12]; pre-emergence, Preemergence): 5%
- pest or weed control at 62 g/ha ([12]; pre-emergence, Preemergence): 10%
- pest or weed control at 125 g/ha ([12]; pre-emergence, Preemergence): 85%
- pest or weed control at 250 g/ha ([12]; pre-emergence, Preemergence): 98%
- pest or weed control at 31 g/ha ([13]; post-emergence, Postemergence): 35%
- pest or weed control at 62 g/ha ([13]; post-emergence, Postemergence): 55%
- pest or weed control at 125 g/ha ([13]; post-emergence, Postemergence): 65%
- pest or weed control at 250 g/ha ([13]; post-emergence, Postemergence): 85%
- pest or weed control at 31 g/ha ([13]; pre-emergence, Preemergence): 100%
- pest or weed control at 62 g/ha ([13]; pre-emergence, Preemergence): 100%
- pest or weed control at 125 g/ha ([13]; pre-emergence, Preemergence): 100%
- pest or weed control at 250 g/ha ([13]; pre-emergence, Preemergence): 100%
